Literature values, collected in patent US20170360732A1, “Methods and Drug Therapies for Patency of Occluded Blood Vessels Following Angioplasty” (NephroGenesis, LLC, priority 2014, published 2017).
Read-outs that look alike come from different tables or passages of the source. Blank lines part the entries; values can stand above or below the compound they belong to.

Columns and labels:
[1] = not given; remark: listed apart in the source
[2] = system: vascular smooth muscle cells; details: 100 μM, cultured cells
[3] = target: T1, lysyl oxidase (Homo sapiens, UniProt P28300)
T1 sequence (P28300 169-417): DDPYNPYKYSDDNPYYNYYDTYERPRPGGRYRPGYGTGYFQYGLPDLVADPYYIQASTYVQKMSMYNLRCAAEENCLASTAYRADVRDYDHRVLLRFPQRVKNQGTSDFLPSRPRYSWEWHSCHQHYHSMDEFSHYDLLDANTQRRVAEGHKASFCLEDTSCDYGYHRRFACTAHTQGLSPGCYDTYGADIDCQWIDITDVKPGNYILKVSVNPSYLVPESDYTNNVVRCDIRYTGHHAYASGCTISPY

[4] = system: Type I and Type IV collagen; details: 100 μM
[5] = not given; remark: listed apart in the source
[6] = system: Type III collagen
[7] = system: peripheral blood monocytes
[8] = system: vessel restenosis following angioplasty; details: 28 days, rabbit model of atherosclerosis
[9] = system: vascular smooth muscle cells; details: within 30 minutes
[10] = system: arteries injured with balloon angioplasty; details: oral, 6 months, rabbit, vs controls

- peak plasma level (750 mg oral, patients): 3.0 µg/mL
- time to peak plasma level (750 mg oral, patients): ≤ 3 h
- plasma levels achieved with typical clinical uses (typical clinical uses of the drug): 3000 ng/mL
- half-life ([1]; intravenous, patients with primary biliary cirrhosis): 1.43 h
SMILES: CC(C)(S)[C@@H](N)C(=O)O [D-penicillamine]
- side effects ([1]; intravenous administration): no reported side effects

- inhibition of lysyl oxidase activity ([3]; 0.2 μM): up to 79%
- inhibition of lysyl oxidase activity ([3]; 2.0 μM, 1 hour after drug administration): 90%
- inhibition of lysyl oxidase activity ([3]; 2.0 μM, within 5 minutes): completely inhibited
- inhibition of lysyl oxidase activity ([3]; 10 μM, within 15 minutes): 100%
- maximum plasma concentration ([5]; intravenous infusion, 70 gms/m2 (approximately 140 gms), 1000 mg/min, oncology patients): 50 mM
SMILES: O=C1O[C@H]([C@@H](O)CO)C(O)=C1O [ascorbic acid]
- reduction of vascular smooth muscle cell proliferation and migration [2]: up to 16%
- increase of expression of Type I and Type IV collagen [4]: 200%-250%
- side effects ([5]; rapid intravenous infusion, 70-110 gm/M^2, oncology patients): no significant side effects
- stimulatory effect upon Type III collagen [6]: no stimulatory effect

- blocking of lysyl oxidase-stimulated monocyte migration [7]: blocked
SMILES: NCCN [ethylenediamine]

SMILES: N#CCCN [β-aminopropionitrile]
- reduction of vessel restenosis following angioplasty [8]: 33%
- blocking of lysyl oxidase-stimulated monocyte migration [7]: blocked
- inhibition of migration of vascular smooth muscle cells [9]: 80%
- reduction in cross-sectional diameter of the arteries injured with balloon angioplasty [10]: 60%
